Literature values in patent US20230414599A1, “NICOTINAMIDE, NICOTINAMIDE PRECURSORS AND NICOTINAMIDE METABOLITES AND COMPOSITIONS THEREOF FOR REDUCING THE TIME TO RESOLUTION OF SYMPTOMS IN PATIENTS WITH COVID-19 AND OTHER VIRAL INFECTIONS” (CONARIS RESEARCH INSTITUTE AG, priority 2020, published 2023).

Tested on: COVID-19
Settings: patients with mild or moderate COVID-19; interim analysis; cited from earlier work

CC(C)C(=O)OC[C@H]1O[C@@H](n2ccc(NO)nc2=O)[C@H](O)[C@@H]1O [molnupiravir]
Reduction of the risk of hospitalization or death compared to placebo: approximately 50%
